Drawing on ChEMBL document CHEMBL3244259, “Synthesis and anti-herpes simplex activity of analogues of phosphonoacetic acid” (J Med Chem, 1977), this text covers I50 and Activity for twelve compounds.

Structures are written as SMILES. The source made the active and inactive calls. The rule behind the calls is not given here.

Experiment [1] can be described thus: Inhibition of HSV type-2 DNA polymerase after 30 mins by liquid scintillation counting analysis in presence of dATP, dCTP, dGTP and [3H]-TTP. More on the design: species or system Human alphaherpesvirus 2.
For experiment [2], the system named is Human alphaherpesvirus 2. As to the kind of experiment: Antiviral activity against Human herpesvirus 2 infected in CF mouse assessed as suppression of virus-induced dermatitis at 100 to 1000 mg/kg/day, po administered for 6 days measured after day 17. In kind it is functional, organism-based.
Experiment [3] relates to Human alphaherpesvirus 2. Put plainly: Antiviral activity against Human herpesvirus 2 infected in CF mouse assessed as suppression of virus-induced dermatitis administered topically as 2% aqueous solution twice daily for 6 days measured after day 17. In kind it is functional, organism-based.
The subject of experiment [4] is Human alphaherpesvirus 2. Put plainly: Antiviral activity against Human herpesvirus 2 infected in CF mouse assessed as suppression of virus-induced dermatitis at 800 mg/kg/day, po administered for 6 days measured after day 17. It counts as functional, organism-based.

As to `CC(C)(C)OC(=O)CP(=O)(O)O`, in experiment [1], the I50 came out at 3.9 µg/mL.

For `O=C(CP(=O)(O)O)OC1CCCCC1`, in experiment [1], the I50 is 49 µg/mL.

On to `CCCOP(=O)(O)CC(=O)O`, for which the I50 in experiment [1] was 200 µg/mL.

In the case of `COP(=O)(O)CC(=O)O`, in experiment [1], the I50 was 19.9 µg/mL.

On to `CCCCCCCCOC(=O)CP(=O)(O)O`, for which, in experiment [1], the I50 is 0.26 µg/mL.

On to `CCCOC(=O)CP(=O)(O)O`, for which the I50 in experiment [1] stood at 0.16 µg/mL. Also, the result in the experiment on Human alphaherpesvirus 2 [2] and in the experiment on Human alphaherpesvirus 2 [3] was Active.

Turning to `O=C(O)CP(=O)([O-])[O-].[Na+].[Na+]` [DISODIUM CARBOXYMETHYLPHOSPHONATE], the I50 in experiment [1] was 0.22 µg/mL.

`O=C(O)CP(=O)(O)c1ccccc1`: the I50 in experiment [1] amounted to 200 µg/mL. For the same compound, the outcome with Human alphaherpesvirus 2 [4] and with Human alphaherpesvirus 2 [3] was inactive.

Take `CCCCCCOP(=O)(O)CC(=O)O`: the result in the experiment with Human alphaherpesvirus 2 [4] and in the experiment with Human alphaherpesvirus 2 [3] was Active.

With `O=C(CP(=O)(O)O)OCc1ccccc1`, the I50 in experiment [1] stood at 40 µg/mL.

In the case of `COc1ccc(P(=O)(O)CC(=O)O)cc1`, the I50 in experiment [1] is 150 µg/mL. For the same compound, the result with Human alphaherpesvirus 2 [4] and in the experiment on Human alphaherpesvirus 2 [3] was inactive.

Consider `CP(=O)(O)CC(=O)O`, for which, in experiment [1], the I50 amounted to 145 µg/mL. For the same compound, the result in the experiment with Human alphaherpesvirus 2 [3] was inactive.
